Test results reported in PubChem BioAssay AID330 (DTP/NCI, 2004).
“And” between values parts separate entries of the source, which are not always exact repeats. Identical values can stand only once. Toxic doses and inconclusive results are not listed.

System: P388 leukemia ip, CD2F1 mice, survival T/C
Test: NCI In Vivo Anticancer Drug Screen. Data for tumor model P388 Leukemia (intraperitoneal) in CD2F1 (CDF1) mice
Conditions: endpoint: median survival time, higher = longer survival
Outline: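 Mice carrying the transplanted tumor received test compound or vehicle. Survival was recorded in each group, and the value is the treated-group measurement divided by that of the vehicle-treated control group.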

[1] = dose: 100.0 mg/kg/injection, schedule: Q04DX003 (ip), vehicle: saline
[2] = dose: 50.0 mg/kg/injection, schedule: Q01DX005 (ip), vehicle: saline with Tween-80
[3] = dose: 100.0 mg/kg/injection, schedule: Q01DX005 (ip), vehicle: saline with Tween-80
[4] = dose: 200.0 mg/kg/injection, schedule: Q01DX005 (ip), vehicle: saline with Tween-80
[5] = dose: 100.0 mg/kg/injection, schedule: Q04DX003 (ip), vehicle: saline with Tween-80
[6] = dose: 200.0 mg/kg/injection, schedule: Q04DX003 (ip), vehicle: saline with Tween-80
[7] = dose: 50.0 mg/kg/injection, schedule: Q01DX005 (ip), vehicle: Klucel (hydroxypropylcellulose) (HPC)
[8] = dose: 100.0 mg/kg/injection, schedule: Q01DX005 (ip), vehicle: Klucel (hydroxypropylcellulose) (HPC)
[9] = dose: 200.0 mg/kg/injection, schedule: Q01DX005 (ip), vehicle: Klucel (hydroxypropylcellulose) (HPC)
[10] = dose: 50.0 mg/kg/injection, schedule: Q01DX009 (ip), vehicle: Klucel (hydroxypropylcellulose) (HPC)
[11] = dose: 100.0 mg/kg/injection, schedule: Q01DX009 (ip), vehicle: Klucel (hydroxypropylcellulose) (HPC)
[12] = dose: 200.0 mg/kg/injection, schedule: Q01DX009 (ip), vehicle: Klucel (hydroxypropylcellulose) (HPC)
[13] = dose: 6.25 mg/kg/injection, schedule: Q01DX009 (ip), vehicle: Klucel (hydroxypropylcellulose) (HPC)
[14] = dose: 12.5 mg/kg/injection, schedule: Q01DX009 (ip), vehicle: Klucel (hydroxypropylcellulose) (HPC)
[15] = dose: 25.0 mg/kg/injection, schedule: Q01DX009 (ip), vehicle: Klucel (hydroxypropylcellulose) (HPC)
[16] = dose: 6.25 mg/kg/injection, schedule: Q01DX009 (ip), vehicle: saline with Tween-80
[17] = dose: 50.0 mg/kg/injection, schedule: Q01DX009 (ip), vehicle: saline with Tween-80

O=C(CN1CCOCC1)c1c(-c2ccccc2)[nH]c2ccccc12
T/C [1]: 104 % of control
T/C (dose: 200.0 mg/kg/injection, schedule: Q04DX003 (ip), vehicle: saline): 102 % of control
T/C (dose: 400.0 mg/kg/injection, schedule: Q04DX003 (ip), vehicle: saline): 95 % of control

Cc1[nH]nc2c1CC(c1ccccc1)NC2=O (stereo unspecified)
T/C [2]: 92 % of control
T/C [3]: 94 % of control
T/C [4]: 94 % of control

CN(C)CCNc1ccc(O)c2sc3ccccc3c(=O)c12
T/C [5]: 94 % of control
T/C [6]: 90 % of control

CN(C)C(c1cccnc1)C1COCOC1 (stereo unspecified)
T/C (dose: 50.0 mg/kg/injection, schedule: Q01DX005 (ip), vehicle: saline): 109 % of control
T/C (dose: 100.0 mg/kg/injection, schedule: Q01DX005 (ip), vehicle: saline): 106 % of control
T/C (dose: 200.0 mg/kg/injection, schedule: Q01DX005 (ip), vehicle: saline): 98 % of control

CC1=CC2OC3CC4OC(=O)/C=C/C=C/C(C(C)O)OCC(O)/C(C)=C/C(=O)OCC2(CC1O)C4(C)C31CO1 (stereo unspecified)
T/C (dose: 1.25 mg/kg/injection, schedule: Q01DX005 (ip), vehicle: saline + alcohol): 163 % of control
T/C (dose: 2.5 mg/kg/injection, schedule: Q01DX005 (ip), vehicle: saline + alcohol): 156 % of control and 224 % of control
T/C (dose: 5.0 mg/kg/injection, schedule: Q01DX005 (ip), vehicle: saline + alcohol): 198 % of control and 243 % of control

Cc1ccc(S(=O)(=O)C(CCC(=O)c2ccccc2)(CCC(=O)c2ccccc2)[N+](=O)[O-])cc1
T/C [7]: 91 % of control
T/C [8]: 92 % of control
T/C [9]: 87 % of control

CCOC(=O)c1c(C)[nH]c2c(-c3ccccc3)c3cc(Cl)ccc3nc12
T/C [10]: 103 % of control
T/C [11]: 109 % of control
T/C [12]: 104 % of control
T/C (dose: 400.0 mg/kg/injection, schedule: Q01DX009 (ip), vehicle: Klucel (hydroxypropylcellulose) (HPC)): 99 % of control

Cc1nc(Cl)c2[nH]c(Cl)nc2n1
T/C [7]: 102 % of control
T/C [8]: 102 % of control
T/C [9]: 100 % of control

COc1ccc2c(Cl)cc(NC(=S)Nc3ccccc3)nc2c1
T/C [13]: 103 % of control
T/C [14]: 104 % of control
T/C [15]: 96 % of control

CC(=O)NCCCCCC(=O)N(C)C
T/C [7]: 96 % of control
T/C [8]: 90 % of control
T/C [9]: 98 % of control
T/C (dose: 400.0 mg/kg/injection, schedule: Q01DX005 (ip), vehicle: Klucel (hydroxypropylcellulose) (HPC)): 98 % of control

O=C(CC(=O)N1N=C(N(c2ccccc2)c2ccccc2)CC1c1ccccc1)Nc1ccccc1Cl (stereo unspecified)
T/C [2]: 99 % of control
T/C [3]: 99 % of control
T/C (dose: 240.0 mg/kg/injection, schedule: Q01DX005 (ip), vehicle: saline with Tween-80): 90 % of control

CN1CCC(OC(=O)c2ccc3ncccc3c2)CC1
T/C (dose: 50.0 mg/kg/injection, schedule: Q04DX003 (ip), vehicle: saline): 100 % of control
T/C [1]: 98 % of control

O=C(CC1(O)C(=O)Nc2ccc([N+](=O)[O-])cc21)c1ccco1 (stereo unspecified)
T/C (dose: 60.0 mg/kg/injection, schedule: Q01DX005 (ip), vehicle: Klucel (hydroxypropylcellulose) (HPC)): 96 % of control
T/C (dose: 120.0 mg/kg/injection, schedule: Q01DX005 (ip), vehicle: Klucel (hydroxypropylcellulose) (HPC)): 100 % of control
T/C (dose: 240.0 mg/kg/injection, schedule: Q01DX005 (ip), vehicle: Klucel (hydroxypropylcellulose) (HPC)): 99 % of control

CC(CC1CCCCC1)NCCC(c1ccccc1)c1ccccc1 (stereo unspecified)
T/C [14]: 116 % of control
T/C [15]: 100 % of control

O=c1[nH]c(=O)n(C2CC(O)C(CO)C2)cc1F (stereo unspecified)
T/C (dose: 200.0 mg/kg/injection, schedule: Q01DX005 (ip), vehicle: saline + Tween-80 + alcohol): 100 % of control
T/C (dose: 400.0 mg/kg/injection, schedule: Q01DX005 (ip), vehicle: saline + Tween-80 + alcohol): 120 % of control

[Cl][Hg][CH]1CCC2OC1CC[CH]2[Hg][Cl] (stereo unspecified)
T/C (dose: 1.56 mg/kg/injection, schedule: Q01DX009 (ip), vehicle: saline with Tween-80): 112 % of control
T/C (dose: 3.12 mg/kg/injection, schedule: Q01DX009 (ip), vehicle: saline with Tween-80): 105 % of control and 118 % of control
T/C [16]: 121 % of control and 91 % of control
T/C (dose: 12.5 mg/kg/injection, schedule: Q01DX009 (ip), vehicle: saline with Tween-80): 94 % of control

Cc1ccc(NC(=O)/C=C2\CONC(c3ccccc3)=N2)cc1
T/C (dose: 60.0 mg/kg/injection, schedule: Q01DX005 (ip), vehicle: saline with Tween-80): 91 % of control
T/C (dose: 120.0 mg/kg/injection, schedule: Q01DX005 (ip), vehicle: saline with Tween-80): 91 % of control

Cc1c[n+]([O-])n(-c2ccccc2)n1
T/C [2]: 101 % of control
T/C [3]: 97 % of control
T/C [4]: 103 % of control

N#C/C=C/c1cccc([N+](=O)[O-])c1
T/C (dose: 100.0 mg/kg/injection, schedule: Q01DX001 (ip), vehicle: saline with Tween-80): 100 % of control
T/C (dose: 200.0 mg/kg/injection, schedule: Q01DX001 (ip), vehicle: saline with Tween-80): 100 % of control
T/C (dose: 400.0 mg/kg/injection, schedule: Q01DX001 (ip), vehicle: saline with Tween-80): 100 % of control

C/C(=N\NC(=S)N(C)C)c1ccccn1
T/C [16]: 100 % of control

Cc1cccc(Nc2c(N)nc(N)nc2N)c1
T/C (dose: 25.0 mg/kg/injection, schedule: Q01DX009 (ip), vehicle: saline with Tween-80): 100 % of control
T/C (dose: 25.0 mg/kg/injection, schedule: Q04DX003 (ip), vehicle: saline with Tween-80): 100 % of control
T/C [17]: 109 % of control
T/C (dose: 50.0 mg/kg/injection, schedule: Q04DX003 (ip), vehicle: saline with Tween-80): 100 % of control
T/C [5]: 104 % of control and 118 % of control

COc1cc(/C=N\NC(=O)C(C)SC(C)C(=O)N/N=C/c2cc(OC)c(OC)c(OC)c2)cc(OC)c1OC (stereo unspecified)
T/C [7]: 93 % of control
T/C [8]: 88 % of control
T/C [9]: 90 % of control

C[C-]=NCCCl.C[C-]=O.[C-]#[O+].[C-]#[O+].[C-]#[O+].[C-]#[O+].[Re]
T/C (dose: 12.5 mg/kg/injection, schedule: Q01DX005 (ip), vehicle: Klucel (hydroxypropylcellulose) (HPC)): 102 % of control
T/C (dose: 25.0 mg/kg/injection, schedule: Q01DX005 (ip), vehicle: Klucel (hydroxypropylcellulose) (HPC)): 89 % of control
T/C [7]: 93 % of control and 98 % of control

NC(=O)Oc1ccccc1
T/C [5]: 100 % of control
T/C [6]: 104 % of control
T/C (dose: 400.0 mg/kg/injection, schedule: Q04DX003 (ip), vehicle: saline with Tween-80): 100 % of control

CC12OC1(C)C1C(=O)OCC1C2=O (stereo unspecified)
T/C [15]: 105 % of control
T/C [10]: 96 % of control
T/C [11]: 97 % of control
T/C [12]: 117 % of control

COc1ccn(CC(C)=O)c(=O)n1
T/C (dose: 60.0 mg/kg/injection, schedule: Q01DX005 (ip), vehicle: saline): 100 % of control
T/C (dose: 120.0 mg/kg/injection, schedule: Q01DX005 (ip), vehicle: saline): 100 % of control
T/C (dose: 240.0 mg/kg/injection, schedule: Q01DX005 (ip), vehicle: saline): 100 % of control

O/N=C1/C(=N/O)N(c2ccccc2)CN1c1ccccc1
T/C (dose: 7.5 mg/kg/injection, schedule: Q01DX005 (ip), vehicle: Klucel (hydroxypropylcellulose) (HPC)): 102 % of control
T/C (dose: 15.0 mg/kg/injection, schedule: Q01DX005 (ip), vehicle: Klucel (hydroxypropylcellulose) (HPC)): 95 % of control
T/C (dose: 30.0 mg/kg/injection, schedule: Q01DX005 (ip), vehicle: Klucel (hydroxypropylcellulose) (HPC)): 98 % of control

COc1ccc(/C=C/C(=O)c2cc(O)cc(OC)c2)cc1
T/C [13]: 101 % of control
T/C [14]: 96 % of control
T/C [15]: 101 % of control
T/C [10]: 110 % of control

CC(=O)OC1=C(Br)CCc2ccccc21
T/C (dose: 3.12 mg/kg/injection, schedule: Q01DX009 (ip), vehicle: DMSO): 103 % of control
T/C (dose: 6.25 mg/kg/injection, schedule: Q01DX009 (ip), vehicle: DMSO): 108 % of control
T/C (dose: 12.5 mg/kg/injection, schedule: Q01DX009 (ip), vehicle: DMSO): 90 % of control and 96 % of control
T/C (dose: 25.0 mg/kg/injection, schedule: Q01DX009 (ip), vehicle: DMSO): 93 % of control

COCn1ccnc1C(=O)c1ccccc1
T/C [17]: 100 % of control
T/C (dose: 100.0 mg/kg/injection, schedule: Q01DX009 (ip), vehicle: saline with Tween-80): 106 % of control
T/C (dose: 200.0 mg/kg/injection, schedule: Q01DX009 (ip), vehicle: saline with Tween-80): 101 % of control
